According to PubChem BioAssay AID192 (DTP/NCI, 2004):
Values joined by “and” are separate entries in the source; they are usually repeats but may differ in a detail not shown here. Equal values may be shown once. Inconclusive results and toxic doses are left out. The calls were made as follows: active = survival T/C of 150% or more; inactive = T/C below 125% in these data.

Tested on: BDF1 mice, B16 melanoma ip, median survival T/C
Assay: NCI In Vivo Anticancer Drug Screen. Data for tumor model B16 Melanoma (intraperitoneal) in B6D2F1 (BDF1) mice
Conditions: endpoint: median survival time, higher = longer survival
Procedure, shortened: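 Tumor-bearing mice received test compound or vehicle. Survival or tumor size was then measured in both groups. The treated-group figure was divided by the control-group figure.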

[1] = dose: 12.5 mg/kg/injection, schedule: Q01DX009 (ip), vehicle: Klucel (hydroxypropylcellulose) (HPC)
[2] = dose: 25.0 mg/kg/injection, schedule: Q01DX009 (ip), vehicle: Klucel (hydroxypropylcellulose) (HPC)
[3] = dose: 50.0 mg/kg/injection, schedule: Q01DX009 (ip), vehicle: Klucel (hydroxypropylcellulose) (HPC)
[4] = dose: 100.0 mg/kg/injection, schedule: Q01DX009 (ip), vehicle: Klucel (hydroxypropylcellulose) (HPC)
[5] = dose: 6.25 mg/kg/injection, schedule: Q01DX009 (ip), vehicle: saline with Tween-80
[6] = dose: 12.5 mg/kg/injection, schedule: Q01DX009 (ip), vehicle: saline with Tween-80
[7] = dose: 25.0 mg/kg/injection, schedule: Q01DX009 (ip), vehicle: saline with Tween-80
[8] = dose: 200.0 mg/kg/injection, schedule: Q01DX009 (ip), vehicle: Klucel (hydroxypropylcellulose) (HPC)
[9] = dose: 400.0 mg/kg/injection, schedule: Q01DX009 (ip), vehicle: Klucel (hydroxypropylcellulose) (HPC)
[10] = dose: 200.0 mg/kg/injection, schedule: Q04DX003 (ip), vehicle: saline
[11] = dose: 6.25 mg/kg/injection, schedule: Q01DX009 (ip), vehicle: saline
[12] = dose: 12.5 mg/kg/injection, schedule: Q01DX009 (ip), vehicle: saline
[13] = dose: 25.0 mg/kg/injection, schedule: Q01DX009 (ip), vehicle: saline
[14] = dose: 50.0 mg/kg/injection, schedule: Q01DX009 (ip), vehicle: saline
[15] = dose: 10.0 mg/kg/injection, schedule: Q01DX009 (ip), vehicle: Klucel (hydroxypropylcellulose) (HPC)
[16] = dose: 12.5 mg/kg/injection, schedule: Q04DX003 (ip), vehicle: saline
[17] = dose: 50.0 mg/kg/injection, schedule: Q04DX003 (ip), vehicle: saline
[18] = dose: 1.25 mg/kg/injection, schedule: Q01DX009 (ip), vehicle: Klucel (hydroxypropylcellulose) (HPC)
[19] = dose: 2.5 mg/kg/injection, schedule: Q01DX009 (ip), vehicle: Klucel (hydroxypropylcellulose) (HPC)
[20] = dose: 5.0 mg/kg/injection, schedule: Q01DX009 (ip), vehicle: Klucel (hydroxypropylcellulose) (HPC)

Measured: T/C

O=C1CC(=O)C(Br)=C1Br
inactive: dose: 0.08 mg/kg/injection, schedule: Q01DX009 (ip), vehicle: saline with Tween-80 97 % of control | dose: 0.15 mg/kg/injection, schedule: Q01DX009 (ip), vehicle: saline with Tween-80 93 % of control | dose: 0.3 mg/kg/injection, schedule: Q01DX009 (ip), vehicle: saline with Tween-80 95 % of control | dose: 0.37 mg/kg/injection, schedule: Q04DX003 (ip), vehicle: saline with Tween-80 94 % of control | dose: 75.0 micrograms/kg/injection, schedule: Q04DX003 (ip), vehicle: saline with Tween-80 92 % of control | dose: 150.0 micrograms/kg/injection, schedule: Q04DX003 (ip), vehicle: saline with Tween-80 92 % of control | dose: 300.0 micrograms/kg/injection, schedule: Q04DX003 (ip), vehicle: saline with Tween-80 91 % of control

c1ccc(C2c3ccccc3C(c3ccccc3)(c3ccccc3)c3ccccc32)cc1
inactive: [1] 87 % of control | [2] 101 % of control | [3] 97 % of control | [4] 86 % of control

c1ccc2c(c1)CCc1ccccc1C2NC1=NCCO1
inactive: [5] 104 % of control | [6] 100 % of control | [7] 92 % of control

Cc1cccc(C)c1NC(=O)Nc1ccc(Cl)cc1
inactive: [4] 93 % of control | [8] 93 % of control | [9] 87 % of control

COC(=O)c1ccc(C(=O)OC)[n+]([O-])c1
inactive: dose: 100.0 mg/kg/injection, schedule: Q04DX003 (ip), vehicle: saline 105 % of control | [10] 112 % of control | dose: 400.0 mg/kg/injection, schedule: Q04DX003 (ip), vehicle: saline 105 % of control

CCC(NC(=O)OC(C)(C)C)C(=O)O (stereo not given)
inactive: [11] 100 % of control | [12] 95 % of control | [13] 95 % of control | [14] 88 % of control and 96 % of control

O=C(NC(CS)C(=O)O)OCc1ccccc1 (stereo not given)
inactive: [3] 94 % of control | [4] 94 % of control

CCCCCCC(=O)O[C@H]1CC[C@H]2[C@@H]3CCC4=CC(=O)CC[C@]4(C)[C@H]3CC[C@]12C
inactive: [15] 96 % of control | dose: 20.0 mg/kg/injection, schedule: Q01DX009 (ip), vehicle: Klucel (hydroxypropylcellulose) (HPC) 110 % of control | dose: 40.0 mg/kg/injection, schedule: Q01DX009 (ip), vehicle: Klucel (hydroxypropylcellulose) (HPC) 89 % of control | dose: 80.0 mg/kg/injection, schedule: Q01DX009 (ip), vehicle: Klucel (hydroxypropylcellulose) (HPC) 103 % of control

COc1cc(NC(=O)CC(C)=O)cc2c(C)cc(=O)n(C)c12
inactive: [4] 96 % of control | [8] 100 % of control | [9] 100 % of control

O=[N+]([O-])O.O=[N+]([O-])O.[O]=[Zr]
inactive: [16] 97 % of control | dose: 25.0 mg/kg/injection, schedule: Q04DX003 (ip), vehicle: saline 90 % of control | [17] 95 % of control

S=C(S)Nc1cccc2ccccc12
inactive: [1] 96 % of control | [2] 93 % of control | [3] 103 % of control

CC12CCC(OC3OC(CO)C(OC4OC(CO)C(O)C(O)C4O)C(O)C3O)CC1CCC1C2CCC2(C)C(C3=CC(=O)OC3)CCC12O (stereo not given)
inactive: dose: 6.0 mg/kg/injection, schedule: Q01DX009 (ip), vehicle: saline 102 % of control | dose: 12.0 mg/kg/injection, schedule: Q01DX009 (ip), vehicle: saline 114 % of control | dose: 24.0 mg/kg/injection, schedule: Q01DX009 (ip), vehicle: saline 102 % of control | dose: 48.0 mg/kg/injection, schedule: Q01DX009 (ip), vehicle: saline 92 % of control

COc1ccc2c(c1Oc1ccc([N+](=O)[O-])cc1[N+](=O)[O-])C13CCN(C)C(C2)C1CCC1(C3)OCCO1 (stereo not given)
inactive: [4] 111 % of control | [8] 86 % of control

C1CC[N-]CC1.CC(=N\O)/C(C)=N/O.CC(=N\O)/C(C)=N/O.[CH-]1CCCCC1.[Co+2]
inactive: [3] 97 % of control | [4] 94 % of control

CCN(CC)CCCC(C)Nc1cc(C)nc(Nc2nc3cc(Cl)c(Cl)cc3[nH]2)n1 (stereo not given)
inactive: [18] 94 % of control | [19] 95 % of control | [20] 96 % of control | [15] 91 % of control

COc1ccc(OCC(O)CN2CCN(c3ccc(Cl)cc3)CC2)cc1 (stereo not given)
inactive: dose: 6.25 mg/kg/injection, schedule: Q01DX009 (ip), vehicle: Klucel (hydroxypropylcellulose) (HPC) 97 % of control | [1] 105 % of control | [2] 104 % of control | [3] 111 % of control | [4] 108 % of control | [8] 105 % of control

CN(C)CCCN=Cc1ccc(O)cc1O.CN(C)CCCN=Cc1ccc(O)cc1O.[Ni+2]
inactive: [5] 95 % of control | [6] 95 % of control | dose: 12.5 mg/kg/injection, schedule: Q04DX003 (ip), vehicle: saline with Tween-80 117 % of control | [7] 92 % of control | dose: 25.0 mg/kg/injection, schedule: Q04DX003 (ip), vehicle: saline with Tween-80 86 % of control

C=C1C(=O)C2(C)OC2(C)C1C(=O)O (stereo not given)
inactive: [18] 109 % of control | [19] 105 % of control | [20] 99 % of control | [15] 93 % of control

CC(Cc1ccccc1)NC1CC2CCC1C2 (stereo not given)
inactive: [12] 101 % of control | [13] 102 % of control | [14] 101 % of control

COc1ccc(-c2ccc(OC)c(OC)c2OC)c(N)c1
inactive: dose: 100.0 mg/kg/injection, schedule: Q01DX009 (ip), vehicle: saline with Tween-80 107 % of control | dose: 200.0 mg/kg/injection, schedule: Q01DX009 (ip), vehicle: saline with Tween-80 107 % of control | dose: 400.0 mg/kg/injection, schedule: Q01DX009 (ip), vehicle: saline with Tween-80 94 % of control

Cc1cc(=O)[nH]c(N/N=C/c2ccccc2)n1
inactive: dose: 100.0 mg/kg/injection, schedule: Q04DX003 (ip), vehicle: gum acacia 93 % of control | dose: 200.0 mg/kg/injection, schedule: Q04DX003 (ip), vehicle: gum acacia 88 % of control | dose: 400.0 mg/kg/injection, schedule: Q04DX003 (ip), vehicle: gum acacia 88 % of control

O=C(Nc1ccccc1)OCCOc1ccc(Cl)cc1Cl
inactive: [4] 96 % of control | [8] 114 % of control | [9] 110 % of control

COc1cc(C(=O)Nc2ccc(N(C)C)cc2)cc(OC)c1OC
inactive: [16] 119 % of control | [17] 116 % of control | [10] 108 % of control

NC(N)=NC1CCCC1
inactive: [12] 97 % of control | [13] 114 % of control | [14] 98 % of control

CC[n+]1ccc(Nc2ccc(NC(=O)c3ccc(Nc4cc[n+](CC)c5ccc(N)cc45)cc3)cc2)cc1
inactive: dose: 0.5 mg/kg/injection, schedule: Q01DX009 (ip), vehicle: saline 95 % of control | dose: 0.5 mg/kg/injection, schedule: Q01DX009 (ip), vehicle: water 96 % of control | dose: 1.0 mg/kg/injection, schedule: Q01DX009 (ip), vehicle: saline 102 % of control | dose: 1.0 mg/kg/injection, schedule: Q01DX009 (ip), vehicle: water 113 % of control | dose: 2.0 mg/kg/injection, schedule: Q01DX009 (ip), vehicle: saline 100 % of control | dose: 2.0 mg/kg/injection, schedule: Q01DX009 (ip), vehicle: water 116 % of control | dose: 4.0 mg/kg/injection, schedule: Q01DX009 (ip), vehicle: saline 111 % of control | dose: 4.0 mg/kg/injection, schedule: Q01DX009 (ip), vehicle: water 106 % of control | dose: 8.0 mg/kg/injection, schedule: Q01DX009 (ip), vehicle: saline 114 % of control

COC1/C=C\C=C(/C)C(=O)NC2=CC(=O)C(N)=C(CC(C)CC(OC)C(O)C(C)C=C(C)C1OC(N)=O)C2=O (stereo not given)
inactive: dose: 0.75 mg/kg/injection, schedule: Q01DX009 (ip), vehicle: saline with Tween-80 117 % of control

COC(=O)c1cc([N+](=O)[O-])cc2ccccc12
inactive: [3] 100 % of control | [4] 97 % of control | [8] 94 % of control

CCCCC[C@H](CN(C)C)[C@H](O)/C=C/c1ccc(Cl)cc1
inactive: [11] 95 % of control | [12] 100 % of control | [13] 104 % of control
